Reference: patent publication US8404672B2, “Substituted heterocyclic compounds” (Bristol-Meyers Squibb Company, priority 2009, dated 2013)

Tests used:
human S1P1 = molecular target: T1, human S1P1 (Homo sapiens, UniProt P21453); assay: S1P1 Binding Assay (33P-S1P radioligand competition, CHO cell membranes); details: membranes from CHO cells expressing human S1P1; 0.03 nM 33P-S1P; 60 min room temperature
T1 construct: expressed in transfected cells; host or cells: CHO cells
Protocol: Membranes were prepared from CHO cells expressing human S1P1. Cells were dissociated in buffer containing 20 mM HEPES, pH 7.5, 50 mM NaCl, 2 mM EDTA and Protease Inhibitor cocktail (Roche), and disrupted on ice using the Polytron homogenizer. The homogenate was centrifuged at 20,000 rpm (48,000 g) and the supernatant was discarded. The membrane pellets were resuspended in buffer containing 50 mM HEPES, pH 7.5, 100 mM NaCl, 1 mM MgCl2, 2 mM EDTA and stored in aliquots at −80° C. after protein concentration determination.
Membranes ([…]) and 0.03 nM final concentration of ^33P—S1P ligand (1 mCi/ml, American Radiolabeled Chemicals) were added to the compound plates. Binding was performed for 60 min at room temperature, terminated by collecting the membranes onto GF/B filter plates, and radioactivity was measured by TOPCOUNT®. The competition data of the test compounds over a range of concentrations was plotted as percentage inhibition of radioligand specific binding. The IC50 is defined as the concentration of competing ligand needed to reduce specific binding by 50%.
Compounds of the present invention and Comparative Compound A were tested in the S1P1 binding assay described hereinabove and the results rounded to two digits, shown in Table A were obtained. In some instances, the value is an average of multiple experiments where N is the number of experiments conducted that provided satisfactory dose response curves. When more than one batch of an example was tested, the value presented is from the batch which allowed a comparison of GTPγS S1P1 and GTPγS S1P3 in Method A (Data shown in Table B). Data was not averaged across different batches of an example compound.

[1] = molecular target: T2, S1P1 (membranes from S1P1/CHO cells) (Homo sapiens, UniProt P21453); assay: Method A: Receptor [35S] GTPγS Binding Assay, S1P1; type: biochemical; details: Method A; S1P1/CHO membranes
T2 construct: expressed in transfected cells; host or cells: S1P1/CHO cells
Protocol: Method A: Receptor [35S] GTPγS Binding Assays
Compounds were loaded in a 384 Falcon v-bottom plate (0.5 μl/well in a 3-fold dilution). Membranes prepared from S1P1/CHO cells or EDG3-Gal5-bla HEK293T cells were added to the compound plate (40 μl/well, final protein 3 μg/well) with MULTIDROP®. [^35S]GTP (1250 Ci/mmol, Perkin Elmer) was diluted in assay buffer: 20 mM HEPES, pH 7.5, 10 mM MgCl2, 150 mM NaCl, 1 mM EGTA, 1 mM DTT, 10 μM GDP, 0.1% fatty acid free BSA, and 10 μg/ml Saponin to 0.4 nM. 40 μl of the [^35S] GTP solution was added to the compound plate with a final concentration of 0.2 nM. The reaction was kept at room temperature for 45 min. At the end of incubation, all the mixtures in the compound plate were transferred to a 384 well FB filter plates via GPCR robot system. The filter plate was washed with water 4 times by using the modified manifold Embla plate washer and dried at 60° C. for 45 min. 30 μA of MicroScint 20 scintillation fluid was added to each well for counting at Packard TOPCOUNT®. EC50 is defined as the agonist concentration that corresponds to 50% of the Ymax (maximal response) obtained for each individual compound tested.
(§1) Compounds of the present invention and Comparative Compound A were tested in the Receptor [35S] GTPγS Binding Assays (Method A) and Receptor [35S] In some instances, the value is an average of multiple experiments where N is the number of experiments conducted that provided satisfactory dose response curves. When more than one batch of an example was tested, the value presented is from a batch which allowed a comparison of GTPγS S1P1 and GTPγS S1P3 in which the most number of experiments were performed. Preferably, the same batch was examined in Method A and Method B. Data was not averaged across different batches of an example compound.

[2] = molecular target: T3, S1P1 (membranes from S1P1 transfected CHO cells) (Homo sapiens, UniProt P21453); assay: Method B: Receptor [35S] GTPγS SPA Binding Assay, S1P1; type: biochemical
T3 construct: expressed in transfected cells; host or cells: CHO cells
Protocol: (§2) Method B: Receptor [35S] GTPγS SPA Binding Assays
(§3) Membranes prepared from S1P1 or S1P3 transfected CHO cells ([…]) were incubated in 96-well white plates (CORNING® 3693) with test compounds diluted in DMSO, in 50 μl of reaction mixture containing 7.5 μl WGA-PVT beads (20 mg/ml), and 5 μM GDP, 20 mM HEPES pH 7.4, 100 mM NaCl, 1 mM EDTA, 5 mM MgCl2, 10 μg/ml saponin, 0.1% BSA, and 1 μM leupeptin. The assay was initiated with the addition of […] of 0.2 nM [^35S]-GTPγS (1250 Ci/mmol; NEN) in assay buffer. After 90 min incubation at room temperature, spin the plate at 1000 rpm for 5 min. The bound radionuclides were measured at TOPCOUNT®, expressed as % response relative to S1P (1 μM) activation. Data was analyzed using the four parameter logistic equation in Excel. The four parameters in the equation, Y=A+((B−A)/(1+((EC50/X)^D))), are described as following: A is the Y value (agonist activity) at the bottom plateau; B is the Y value at the top plateau; EC50 is the X value (agonist concentration) when the response is halfway between bottom and top; D is Hill coefficient. Curves were not generated for compounds having Ymax values were below 50%.
as §1

[3] = molecular target: T4, S1P3 (membranes from S1P3 transfected CHO cells) (Homo sapiens, UniProt Q99500); assay: Method B: Receptor [35S] GTPγS SPA Binding Assay, S1P3; type: biochemical
T4 construct: expressed in transfected cells; host or cells: CHO cells
Protocol: as §2, §3, §1

circulating lymphocytes = assay: Blood Lymphocyte Reduction Assay (BLR) in rats; type: in vivo; details: Lewis rats, oral, vs vehicle group
Protocol: Blood Lymphocyte Reduction Assay (BLR) in Rodents
Lewis rats or BALB/c mice were dosed orally with test article (as a solution or suspension in the vehicle) or vehicle alone (polyethylene glycol 300, “PEG300”). Blood was drawn at 4 hr and 24 h by retro-orbital bleeding. Blood lymphocyte counts were determined on an ADVIA® 120 Hematology Analyzer (Siemens Healthcare Diagnostics). The results were measured as a reduction in the percentage of circulating lymphocytes as compared to the vehicle treated group at the 4 hr and 24 hr measurement. The results represent the average results of all animals within each treatment group (n=3-4).
A compound of the present invention was tested in the Blood Lymphocyte Reduction assay (BLR) described hereinabove and the results are shown in Table D for rats and Table E for mice.

T3 sequence (P21453 whole entry): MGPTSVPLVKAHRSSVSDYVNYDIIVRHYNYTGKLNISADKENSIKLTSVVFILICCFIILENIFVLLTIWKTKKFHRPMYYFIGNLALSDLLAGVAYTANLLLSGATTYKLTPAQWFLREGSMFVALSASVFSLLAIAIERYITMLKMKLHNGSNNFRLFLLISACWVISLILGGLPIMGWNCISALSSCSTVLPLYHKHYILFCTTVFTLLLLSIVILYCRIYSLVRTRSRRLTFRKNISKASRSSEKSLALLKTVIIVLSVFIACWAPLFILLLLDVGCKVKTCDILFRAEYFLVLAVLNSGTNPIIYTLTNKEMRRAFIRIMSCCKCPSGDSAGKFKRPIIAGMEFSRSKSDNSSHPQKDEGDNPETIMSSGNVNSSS
T2 sequence (P21453 whole entry): as above
T1 sequence (P21453 whole entry): as above
T4 sequence (Q99500 whole entry): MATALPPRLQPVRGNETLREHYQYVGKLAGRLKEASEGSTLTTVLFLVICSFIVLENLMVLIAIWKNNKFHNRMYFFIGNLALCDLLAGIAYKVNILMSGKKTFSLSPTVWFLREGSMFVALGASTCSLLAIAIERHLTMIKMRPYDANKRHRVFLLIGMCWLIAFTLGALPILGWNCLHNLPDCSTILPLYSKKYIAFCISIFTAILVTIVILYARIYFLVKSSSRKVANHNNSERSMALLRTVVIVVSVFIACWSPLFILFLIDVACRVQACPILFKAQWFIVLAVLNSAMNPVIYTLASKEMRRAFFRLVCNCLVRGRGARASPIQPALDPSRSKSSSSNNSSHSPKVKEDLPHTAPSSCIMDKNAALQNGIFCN

IC50 (human S1P1): 0.21 nM
EC50 [1]: 1.4 nM
EC50 ([2]; Method B SPA, S1P1 transfected CHO membranes): 0.17 nM
GTPγS S1P3/S1P1 (Method B) ([2]; ratio of GTPγS S1P3 EC50 to GTPγS S1P1 EC50, Method B): 37,000
EC50 [3]: 6200 nM
SMILES: O=C(O)C1CN(Cc2ccc(-c3noc(-c4onc(-c5ccccn5)c4C(F)(F)F)n3)cc2)C1 [Example 1, 1-(4-(5-(3-(Pyridin-2-yl)-4-(trifluoromethyl)isoxazol-5-yl)-1,2,4-oxadiazol-3-yl)benzyl)azetidine-3-carboxylic acid]
% reduction in lymphocytes at 4 hr. (circulating lymphocytes; 0.3 mg/kg): 82%
% reduction in lymphocytes at 24 hr. (circulating lymphocytes; 0.3 mg/kg): 48%
% reduction in lymphocytes at 4 hr. (circulating lymphocytes; 1.0 mg/kg): 85%
% reduction in lymphocytes at 24 hr. (circulating lymphocytes; 1.0 mg/kg): 80%
